Measurements reported in PMC12442081, “Combating Fuel Biocontamination: Tailored Antimicrobial Peptides and an Innovative Delivery Strategy” (ACS Applied Bio Materials, 2025).
Where no end group is shown, it is not given here.

Experiments:
[1] = system: microbial clusters MY, KR, DN, MC, BL, RM, SP, PA, HR; test: Broad-spectrum activity score (in-house scoring matrix); conditions: sum over 9 microbial clusters: (+) = 1, (X) = 0, Fuel x = -1
Protocol: Table S4. Summarizing the broad-spectrum activity of the peptides, considering the MIC value/ efficacy to control microbial growth upon fuel co-incubation
Peptides Bacterial clusters Fungal
Actinobacteria Firmicutes Proteobacteria Asco- […]
Peptides identified based on the scoring matrix, where (+) =1 (implying peptide activity in fuel environment); (X) = 0 (implying no activity in the desired range, indicated by microbial proliferation); Fuel x = -1(implying no activity in fuel environment).
Clearly, P17 is the best performing peptide in vitro across diverse microbial phyla as well as when incubated in the fuel environment. Based on the activity of the selected peptides, the best

Hormoconis resinae (HR) = test: Effectiveness of peptides on spiked fuel samples (aqueous layer); assay type: cell-based; parameters: key: (+) =1 (implying peptide activity in fuel environment); (X) = 0 (implying no activity in the desired range, indicated by microbial proliferation); Fuel x = -1(implying no activity in fuel environment); conditions: initial screening in spiked fuel
Protocol: (§1) To study the partitioning of microbes in fuel tanks, filter-sterilized fuel was mixed with BH medium in a 1:1 (v/v) ratio. The inoculum was added to the aqueous phase at the bottom to simulate growth in the aqueous layer of fuel tanks and incubated aerobically at 30 °C for 30 days. Visible growth was assessed, and aliquots from both the aqueous and fuel phases were plated on nutrient agar plates to evaluate microbial growth. Peptides were initially added to the aqueous layer of microbially spiked fuel samples for screening the effectiveness in the fuel environment. The study was further extended over a longer duration, and incubated under aerobic conditions at 30 °C for 30 days. Microbial growth was monitored at regular intervals by plating aliquots from the aqueous layer on the nutrient agar plates.
(§2) The engineered peptides were administered at their respective MICs to the aqueous layer of simulated fuel samples, and samples from both the aqueous and solvent (fuel) layers were removed at intervals of 7, 14, 21, and 30 days and plated on LBA plates to assess cell viability (Table S5).

[2] = system: Dermacoccus nishinomiyaensis (DN); test: as above; assay type: cell-based; parameters: key: (+) =1 (implying peptide activity in fuel environment); (X) = 0 (implying no activity in the desired range, indicated by microbial proliferation); Fuel x = -1(implying no activity in fuel environment); conditions: initial screening in spiked fuel
Protocol: as §1, §2

[3] = system: Macrococcus caseolyticus (MC); test: as above; assay type: cell-based; parameters: key: (+) =1 (implying peptide activity in fuel environment); (X) = 0 (implying no activity in the desired range, indicated by microbial proliferation); Fuel x = -1(implying no activity in fuel environment); conditions: initial screening in spiked fuel
Protocol: as §1, §2

Kocuria rosea (KR) = test: as above; assay type: cell-based; parameters: key: (+) =1 (implying peptide activity in fuel environment); (X) = 0 (implying no activity in the desired range, indicated by microbial proliferation); Fuel x = -1(implying no activity in fuel environment); conditions: initial screening in spiked fuel
Protocol: as §1, §2

[4] = system: Micrococcus yunnanensis (MY); test: as above; assay type: cell-based; parameters: key: (+) =1 (implying peptide activity in fuel environment); (X) = 0 (implying no activity in the desired range, indicated by microbial proliferation); Fuel x = -1(implying no activity in fuel environment); conditions: initial screening in spiked fuel
Protocol: as §1, §2

[5] = system: Bacillus licheniformis (BL); test: as above; assay type: cell-based; parameters: key: (+) =1 (implying peptide activity in fuel environment); (X) = 0 (implying no activity in the desired range, indicated by microbial proliferation); Fuel x = -1(implying no activity in fuel environment); conditions: initial screening in spiked fuel
Protocol: as §1, §2

[6] = system: Pseudomonas aeruginosa (PA); test: as above; assay type: cell-based; parameters: key: (+) =1 (implying peptide activity in fuel environment); (X) = 0 (implying no activity in the desired range, indicated by microbial proliferation); Fuel x = -1(implying no activity in fuel environment); conditions: initial screening in spiked fuel
Protocol: as §1, §2

[7] = system: Sphingomonas paucimobilis (SP); test: as above; assay type: cell-based; parameters: key: (+) =1 (implying peptide activity in fuel environment); (X) = 0 (implying no activity in the desired range, indicated by microbial proliferation); Fuel x = -1(implying no activity in fuel environment); conditions: initial screening in spiked fuel
Protocol: as §1, §2

Roseomonas mucosa (RM) = test: as above; assay type: cell-based; parameters: key: (+) =1 (implying peptide activity in fuel environment); (X) = 0 (implying no activity in the desired range, indicated by microbial proliferation); Fuel x = -1(implying no activity in fuel environment); conditions: initial screening in spiked fuel
Protocol: as §1, §2

[8] = HPLC retention time as a function of peptide hydrophobicity; assay type: physicochemical; conditions: chromatographic, Polaris 5 C18-A reverse phase, 0.1% TFA water / 0.1% TFA acetonitrile gradient, 30 min, 300 μM peptide
Protocol: The purity of the peptides was ascertained by high-performance liquid chromatography (HPLC) using Polaris 5 C18-A […] × 4.6 mm reverse phase Zorbax columns from Agilent Technologies. The buffer system contained 0.1% (v/v) TFA in 100% water and 0.1% (v/v) TFA in 100% acetonitrile. Each peptide sample contained 300 μM peptides dissolved in an acetonitrile–water (1:4) mixture. A constant gradient of the two solvent systems was used to generate the chromatogram for 30 min after sample injection.

[9] = system: Macrococcus caseolyticus (MC) ATCC 13548; assay type: cell-based
Protocol: (§3) All of the bacterial species were grown overnight at 37 °C in LB broth. 10^7 CFU/mL of cells were resuspended in fresh culture and grown until the mid log phase. , The bacterial cells were adjusted to a concentration of 5 × 10^5 CFU/mL to quantify the MIC. Equal volumes of the respective bacterial cultures were incubated with the serially diluted peptides in 96-well microtiter plate and incubated overnight at 37 °C in ambient air. Microorganisms without peptides were treated as the positive control, while uninoculated broth was used as the negative control. The MIC was taken as the lowest peptide concentration at which observable bacteria growth was inhibited, as measured by a microplate reader (Biotek Synergy H1 microplate reader). Experiments were performed in triplicates, and the mean MIC values were determined. A similar study was performed to understand the effect of peptide purity, i.e., ranging from 70 to 95%, on the peptide MIC.

[10] = system: Dermacoccus nishinomiyaensis (DN) ATCC 29093; assay type: cell-based
Protocol: as §3

[11] = system: Bacillus licheniformis (BL) ATCC 14580; assay type: cell-based; conditions: ATCC 14580
Protocol: as §3

[12] = system: Kocuria rosea (KR) ATCC 186; assay type: cell-based
Protocol: as §3

[13] = system: Micrococcus yunnanensis (MY) ATCC 12698; assay type: cell-based
Protocol: as §3

[14] = system: Sphingomonas paucimobilis (SP); assay type: cell-based
Protocol: as §3

[15] = system: Hormoconis resinae (HR) ATCC 20267; assay type: cell-based
Protocol: as §3
The same experimental procedures that were conducted for the antibacterial assay were used to determine the MIC of the peptides against the fungal strain, H. resinae.

[16] = system: Pseudomonas aeruginosa (PA) ATCC 39327; assay type: cell-based; conditions: ATCC 39327
Protocol: as §3

Molecule	Score [1]	activity considering MIC value/efficacy upon fuel co-incubation (Hormoconis resinae (HR))	activity considering MIC value/efficacy upon fuel co-incubation [2]	activity considering MIC value/efficacy upon fuel co-incubation [3]	activity considering MIC value/efficacy upon fuel co-incubation (Kocuria rosea (KR))	activity considering MIC value/efficacy upon fuel co-incubation [4]	activity considering MIC value/efficacy upon fuel co-incubation [5]	activity considering MIC value/efficacy upon fuel co-incubation [6]	activity considering MIC value/efficacy upon fuel co-incubation [7]	activity considering MIC value/efficacy upon fuel co-incubation (Roseomonas mucosa (RM))	R t, retention time of peptide on HPLC column as a function of peptide hydrophobicity [8] [min]	MIC [9] [µM]	MIC [10] [µM]	MIC [11] [µM]	MIC [12] [µM]	MIC [13] [µM]	MIC [14] [µM]	MIC [15] [µM]	MIC [16] [µM]
CC[C@H](C)[C@H](N)C(=O)N[C@@H](CC(C)C)C(=O)N[C@H](C(=O)N[C@@H](Cc1c[nH]c2ccccc12)C(=O)N[C@@H](CCCCN)C(=O)N[C@@H](Cc1c[nH]c2ccccc12)C(=O)N1CCC[C@H]1C(=O)N[C@@H](Cc1c[nH]c2ccccc12)C(=O)N[C@@H](Cc1c[nH]c2ccccc12)C(=O)N1CCC[C@H]1C(=O)N[C@@H](Cc1c[nH]c2ccccc12)C(=O)N[C@@H](CCCNC(=N)N)C(=O)N[C@@H](CCCNC(=N)N)C(=O)O)[C@@H](C)CC [P18]	3	X	Fuel x	X	+	+	+	X	+	X	13.314	31.25	0.9	1.9	0.9	0.9	0.9		
ILPWKWPWFPWRR [P6]	-3	Fuel x	Fuel x	X	Fuel x	+	Fuel x	X	X	X	12.299		0.9	0.9	0.9	0.9	15.625	0.9	7.8
ILPWKWPWWVWRR [P5]	3	X	+	X	Fuel x	+	+	X	+	X	12.045		0.9	0.9	0.9	0.9	0.9	62.5	31.25
ILPWKWVWWPWRR [P8]	2	X	Fuel x	X	X	+	+	X	+	X	12.168		0.9	1.9		0.9	3.91	31.25	15.625
